Tests used:
EP2 receptor = biological target: T1, EP2 receptor (Homo sapiens, UniProt P43116); assay: EP2 Potency Assay (cAMP TR-FRET, CHO-K1 cells transfected with EP2 receptor, PGE2 at EC80); type: cell-based; conditions: CHO-K1 cells expressing EP2, prostaglandin E2 at EC80, read-out: EP2 Potency (IC50 category)
T1 construct: expressed in transfected cells; host or cells: CHO-K1 cells (ATCC), transient transfection with FuGENE 6
Method in brief: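 CHO-K1 cells transiently transfected with EP2 and seeded 24 h after transfection. IC50 from curve fit of percent inhibition versus concentration.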

[1] = Human Liver Microsome Stability; type: in vitro ADME; conditions: human liver microsomes 0.5 mg/mL, 37° C., 60 min; for half-life at 2 μM: read-out: T1/2 (microsomal); for microsomal CLint at 2 μM: read-out: in vitro CLint (microsomal)
Description: The tested compound was incubated in duplicate with human liver microsomes (0.5 mg/mL) at 37° C. These incubations were carried out at a final test article concentration of 2 μM over a total incubation period of 60 minutes. Samples were taken at 0, 15, 30, 45 and 60 min and the reaction terminated by addition of 4 volumes of acetonitrile containing internal standard (100 nM alprazolam, 200 nM imipramine, 200 nM labetalol and 2 μM ketoprofen). Diclofenac was used as a positive control in this study. The samples were analyzed by UPLC-MS/MS to determine the concentration of the test compound and the percent remaining, intrinsic clearance (in vitro CLint) and half-life (T1/2) values were calculated.
(§1) Chromatographic analyses were performed on a Shimadzu UPLC apparatus (Kyoto, Japan) consisting of a gradient pump (model LC-30AD), an automatic injector (model HTC PAL System) and an on-line degasser (model DGU-20A5R). Detection was a triple quadrupole tandem mass spectrometer equipped with a turbo ion spray interface (API 4000/Triple Quad 4500/Triple Quad 5500/Triple Quad 6500). Data acquisition and integration were carried out with LC-MS software (Analyst 1.6) linked directly to the LC-MS/MS system. Chromatographic separations were achieved on a XSelect Hss T3 2.5μ (2.1×30 mm) Column. The mobile phase was 0.1% formic acid in water (A) and 0.1% formic acid in acetonitrile (B). The flow rate was 1.0 mL/min and column was maintained at 40° C.
Half-life (T1/2) data is measured in minutes, and in Table B2, the data is grouped into categories of by the following rules: • T1/2 (microsomal): A=100+; B=50 to 100; C=20 to 50; D<20.
In vitro clearance (CLint) data is measured in μL/min/mg prot, and in Table B2, the data is grouped into categories of by the following rules: • CLint (microsomal): A<20; B=20 to 50; C=50 to 100; and D=100+.

[2] = Human Hepatocyte Stability; type: in vitro ADME; conditions: human hepatocytes 0.5×10^6 cells/mL, 120 min; for half-life at 1 μM: read-out: T1/2 (hepatic); for microsomal CLint at 1 μM: read-out: in vitro CLint (hepatic)
Description: The tested compound was incubated in duplicate with incubation media (Williams' Medium E with 1× GlutaMAX) containing human hepatocytes (0.5×10^6 cells/mL). These incubations were carried out at a final test concentration of 1 μM over a total incubation period of 120 minutes. Samples were taken at 0, 15, 30, 60, 90 and 120 min and the reaction was terminated by addition of acetonitrile containing internal standard (100 nM alprazolam, 200 nM labetalol, 200 nM caffeine and 200 nM diclofenac). Verapamil was used as the positive control in this study. The samples were analyzed by UPLC-MS/MS to determine the concentration of the tested compound and the percentage remaining, intrinsic clearance (in vitro CLint) and half-life (t½) values were calculated.
as §1
Half-life (T1/2) data is measured in minutes, and in Table B2, the data is grouped into categories of by the following rules: • T1/2 (hepatic): A=200+; B=100 to 200; C=50 to 100; and D<50.
In vitro clearance (CLint) data is measured in μL/min/mg prot, and in Table B3, the data is grouped into categories of by the following rules: • CLint (microsomal): A<5; B=5 to 10; C=10 to 20; and D=20+.

T1 sequence (P43116 whole entry): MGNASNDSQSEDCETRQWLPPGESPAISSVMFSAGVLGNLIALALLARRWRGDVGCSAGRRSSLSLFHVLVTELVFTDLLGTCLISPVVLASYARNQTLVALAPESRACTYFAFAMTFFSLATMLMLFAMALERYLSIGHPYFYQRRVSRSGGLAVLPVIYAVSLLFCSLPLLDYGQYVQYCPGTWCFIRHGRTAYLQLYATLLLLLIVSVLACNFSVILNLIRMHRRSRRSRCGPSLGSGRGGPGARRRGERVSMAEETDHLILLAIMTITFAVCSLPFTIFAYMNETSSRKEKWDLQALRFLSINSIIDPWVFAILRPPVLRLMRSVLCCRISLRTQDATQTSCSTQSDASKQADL

SMILES | IC50 (EP2 receptor) | half-life at 2 μM [1] | microsomal CLint at 2 μM [1] | half-life at 1 μM [2] | microsomal CLint at 1 μM [2]
Nc1ncc(CN2CCOc3c(Cl)cc(-n4ccc5cc(F)ccc54)cc3C2)cn1 [Compound 146] | < 100 nM | < 0.333 h | 50 to 100 µL/min/mg | 1.67 to 3.33 h | 10 to 20 µL/min/mg
C[C@@H]1COc2c(Cl)cc(-n3ccc4cc(F)ccc43)cc2CN1Cc1cnc(=O)[nH]c1 [Compound 9] | 100 to 500 nM | 0.833 to 1.67 h | 20 to 50 µL/min/mg | < 0.833 h | > 20 µL/min/mg

Source: patent publication US12624024B2, “EP2 antagonist compounds” (Reservoir Neuroscience, Inc., priority 2021, dated 2026)
